# In patent US10168342B2, “Lipid probes and uses thereof” (THE SCRIPPS RESEARCH INSTITUTE, priority 2015, dated 2019):
# Where two headings read alike, the source gives them in different places.
# Legend:
# [1] = biological target: T1, AEA-DA lipid probe targets in Neuro2a cells (Mus musculus, UniProt Q9D379)
# T1 sequence (Q9D379 1-455): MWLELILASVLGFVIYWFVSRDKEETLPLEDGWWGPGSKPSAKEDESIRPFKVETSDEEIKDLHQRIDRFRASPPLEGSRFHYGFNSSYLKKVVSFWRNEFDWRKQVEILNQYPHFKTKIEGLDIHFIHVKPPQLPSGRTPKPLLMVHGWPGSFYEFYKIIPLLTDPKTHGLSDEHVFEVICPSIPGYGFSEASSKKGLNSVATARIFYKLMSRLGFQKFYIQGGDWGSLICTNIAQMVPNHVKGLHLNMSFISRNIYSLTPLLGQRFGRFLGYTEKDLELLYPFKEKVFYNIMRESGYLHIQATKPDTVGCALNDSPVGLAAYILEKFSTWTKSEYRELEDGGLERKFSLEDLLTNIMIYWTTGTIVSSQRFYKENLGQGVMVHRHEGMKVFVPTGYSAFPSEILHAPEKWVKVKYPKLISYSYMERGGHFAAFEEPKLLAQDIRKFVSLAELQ
# [2] = biological target: T2, AEA-DA lipid probe targets in Neuro2a cells (Mus musculus, UniProt Q9R0P6); details: for SILAC ratio, SEC11A (P67812): Neuro2a cells, AEA-DA probe
# T2 sequence (Q9R0P6 1-179): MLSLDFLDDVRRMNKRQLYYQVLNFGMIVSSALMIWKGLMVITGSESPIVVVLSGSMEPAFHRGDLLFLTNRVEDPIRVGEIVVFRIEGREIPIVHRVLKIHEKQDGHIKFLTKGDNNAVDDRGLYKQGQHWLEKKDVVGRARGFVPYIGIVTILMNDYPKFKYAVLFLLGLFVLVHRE
# [3] = biological target: T3, AEA-DA lipid probe targets in Neuro2a cells (Mus musculus, UniProt Q8VBZ3)
# T3 sequence (Q8VBZ3 1-664): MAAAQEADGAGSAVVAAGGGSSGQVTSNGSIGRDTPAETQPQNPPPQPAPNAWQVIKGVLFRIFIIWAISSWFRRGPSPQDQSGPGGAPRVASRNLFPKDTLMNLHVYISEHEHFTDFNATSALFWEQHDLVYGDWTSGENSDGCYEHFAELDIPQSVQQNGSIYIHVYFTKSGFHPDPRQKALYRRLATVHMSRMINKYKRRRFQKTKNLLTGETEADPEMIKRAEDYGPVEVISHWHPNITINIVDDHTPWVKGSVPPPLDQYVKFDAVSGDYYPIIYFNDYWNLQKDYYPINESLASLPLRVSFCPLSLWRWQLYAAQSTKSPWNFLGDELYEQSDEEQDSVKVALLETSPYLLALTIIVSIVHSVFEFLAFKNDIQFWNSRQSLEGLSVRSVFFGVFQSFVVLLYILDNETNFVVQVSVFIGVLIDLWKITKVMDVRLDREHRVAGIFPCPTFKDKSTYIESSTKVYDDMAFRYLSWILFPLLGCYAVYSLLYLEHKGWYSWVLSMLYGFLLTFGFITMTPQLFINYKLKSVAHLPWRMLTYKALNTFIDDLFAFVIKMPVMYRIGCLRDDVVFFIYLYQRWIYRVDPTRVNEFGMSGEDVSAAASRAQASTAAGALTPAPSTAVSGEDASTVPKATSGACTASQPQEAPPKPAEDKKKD
# [4] = biological target: T4, AEA-DA lipid probe targets in Neuro2a cells (Mus musculus, UniProt Q9QY93)
# T4 sequence (Q9QY93 1-170): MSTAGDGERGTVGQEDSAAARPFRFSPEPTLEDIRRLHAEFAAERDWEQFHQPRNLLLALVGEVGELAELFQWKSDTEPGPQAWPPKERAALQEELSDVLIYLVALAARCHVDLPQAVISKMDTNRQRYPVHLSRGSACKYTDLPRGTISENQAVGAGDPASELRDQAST
# [5] = biological target: AEA-DA lipid probe targets in Neuro2a cells (Mus musculus, UniProt Q9D880)
# Chain of AEA-DA lipid probe targets in Neuro2a cells (Mus musculus, UniProt Q9D880) (Q9D880 22-353): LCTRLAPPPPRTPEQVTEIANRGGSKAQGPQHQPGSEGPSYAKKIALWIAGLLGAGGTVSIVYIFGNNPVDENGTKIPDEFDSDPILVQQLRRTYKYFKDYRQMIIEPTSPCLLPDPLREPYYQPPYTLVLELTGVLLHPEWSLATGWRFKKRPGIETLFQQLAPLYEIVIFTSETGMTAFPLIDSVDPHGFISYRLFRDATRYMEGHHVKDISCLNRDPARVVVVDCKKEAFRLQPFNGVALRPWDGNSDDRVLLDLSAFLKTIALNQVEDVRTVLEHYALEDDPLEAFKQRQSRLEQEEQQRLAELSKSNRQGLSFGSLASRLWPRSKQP
# [6] = biological target: AEA-DA lipid probe targets in Neuro2a cells (Mus musculus, UniProt P52019); details: for SILAC ratio, SQLE (Q14534): Neuro2a cells, AEA-DA probe
# Chain of AEA-DA lipid probe targets in Neuro2a cells (Mus musculus, UniProt P52019) (P52019 whole entry): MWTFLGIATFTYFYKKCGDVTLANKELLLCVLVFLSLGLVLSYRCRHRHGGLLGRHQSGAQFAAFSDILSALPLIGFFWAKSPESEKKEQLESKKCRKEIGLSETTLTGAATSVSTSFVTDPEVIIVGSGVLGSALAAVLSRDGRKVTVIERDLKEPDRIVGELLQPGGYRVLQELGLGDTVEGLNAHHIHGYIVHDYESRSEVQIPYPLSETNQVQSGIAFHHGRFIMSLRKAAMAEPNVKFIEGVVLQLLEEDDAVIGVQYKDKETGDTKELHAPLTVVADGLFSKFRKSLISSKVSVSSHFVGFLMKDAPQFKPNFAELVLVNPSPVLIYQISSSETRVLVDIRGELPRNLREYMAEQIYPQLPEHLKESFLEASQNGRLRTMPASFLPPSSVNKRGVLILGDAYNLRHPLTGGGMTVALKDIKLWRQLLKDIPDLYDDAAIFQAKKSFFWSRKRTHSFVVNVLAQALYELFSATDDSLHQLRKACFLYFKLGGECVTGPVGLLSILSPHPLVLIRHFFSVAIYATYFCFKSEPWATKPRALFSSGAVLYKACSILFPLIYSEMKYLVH
# [7] = biological target: T5, AEA-DA lipid probe targets in Neuro2a cells (Mus musculus, UniProt Q91ZN5)
# T5 sequence (Q91ZN5 1-431): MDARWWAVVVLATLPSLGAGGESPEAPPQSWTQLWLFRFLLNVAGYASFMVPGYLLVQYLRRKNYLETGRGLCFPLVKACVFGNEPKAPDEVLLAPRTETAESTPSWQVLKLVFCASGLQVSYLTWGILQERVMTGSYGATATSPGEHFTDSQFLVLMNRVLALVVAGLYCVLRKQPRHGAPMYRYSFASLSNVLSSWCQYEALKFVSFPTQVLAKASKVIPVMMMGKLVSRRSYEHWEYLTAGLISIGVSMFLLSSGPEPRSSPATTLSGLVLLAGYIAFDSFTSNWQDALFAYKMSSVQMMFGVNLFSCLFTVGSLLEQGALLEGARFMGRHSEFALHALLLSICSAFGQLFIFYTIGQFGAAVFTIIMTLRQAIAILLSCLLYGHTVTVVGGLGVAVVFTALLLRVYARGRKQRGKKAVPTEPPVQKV
# [8] = biological target: T6, AEA-DA lipid probe targets in Neuro2a cells (Mus musculus, UniProt Q8R2Y0); details: for SILAC ratio, ABHD6 (Q8R2Y0): Neuro2a cells, AEA-DA probe
# T6 sequence (Q8R2Y0 1-336): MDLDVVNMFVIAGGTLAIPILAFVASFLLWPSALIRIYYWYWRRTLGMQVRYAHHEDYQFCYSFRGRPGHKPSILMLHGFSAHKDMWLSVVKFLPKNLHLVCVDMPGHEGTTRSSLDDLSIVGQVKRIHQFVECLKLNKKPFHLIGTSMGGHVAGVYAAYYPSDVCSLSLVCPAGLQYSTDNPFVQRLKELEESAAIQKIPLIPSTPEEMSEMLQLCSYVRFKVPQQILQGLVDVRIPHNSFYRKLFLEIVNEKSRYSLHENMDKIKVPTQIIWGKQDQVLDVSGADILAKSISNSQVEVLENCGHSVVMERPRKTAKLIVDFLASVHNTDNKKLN
# [9] = biological target: AEA-DA lipid probe targets in Neuro2a cells (Mus musculus, UniProt P45377)
# Chain of AEA-DA lipid probe targets in Neuro2a cells (Mus musculus, UniProt P45377) (P45377 whole entry): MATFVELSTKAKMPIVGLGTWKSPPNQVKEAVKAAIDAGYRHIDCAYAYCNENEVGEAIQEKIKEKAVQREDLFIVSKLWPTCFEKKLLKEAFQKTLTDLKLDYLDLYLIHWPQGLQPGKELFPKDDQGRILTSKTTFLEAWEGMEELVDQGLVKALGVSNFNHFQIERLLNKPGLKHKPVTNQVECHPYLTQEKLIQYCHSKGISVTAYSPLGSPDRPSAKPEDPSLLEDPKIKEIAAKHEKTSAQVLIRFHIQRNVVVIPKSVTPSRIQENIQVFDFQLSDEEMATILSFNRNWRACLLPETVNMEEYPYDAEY
compound,measurement,setting,value
"CCCCC/C=C\C/C=C\C/C=C\C/C=C\CCCC(=O)NCCO [AEA, anandamide, reference compound]","SILAC ratio, Ephx1",[1]; competitor 200 μM,2.1
same,"SILAC ratio, SEC11A (P67812)",[2]; competitor 200 μM,1.9
same,"SILAC ratio, Sec11a",[2]; competitor 200 μM,1.9
same,"SILAC ratio, Clptm1",[3]; competitor 200 μM,2.3
same,SILAC ratio Dctpp1,[4]; competitor 200 μM,1.5
same,SILAC ratio Timm50,[5]; competitor 200 μM,1.2
same,"SILAC ratio, SQLE (Q14534)",[6]; competitor 200 μM,1.9
same,SILAC ratio Sqle,[6]; competitor 200 μM,1.9
same,"SILAC ratio, Slc35b2",[7]; competitor 200 μM,1.9
same,"SILAC ratio, ABHD6 (Q8R2Y0)",[8]; competitor 200 μM,2.3
same,"SILAC ratio, Abhd6",[8]; competitor 200 μM,2.3
same,"SILAC ratio, Akr1b8",[9]; competitor 200 μM,7.7
"O=C(/C=C/c1cccnc1)NCCCCC1CCN(C(=O)c2ccccc2)CC1 [FK-866, reference compound]","SILAC ratio, Ephx1",[1]; competitor 25 μM,1.4
same,"SILAC ratio, SEC11A (P67812)",[2]; competitor 25 μM,1.1
same,"SILAC ratio, Sec11a",[2]; competitor 25 μM,1.1
same,"SILAC ratio, Clptm1",[3]; competitor 25 μM,1.1
same,SILAC ratio Dctpp1,[4]; competitor 25 μM,1.4
same,SILAC ratio Timm50,[5]; competitor 25 μM,1.1
same,"SILAC ratio, SQLE (Q14534)",[6]; competitor 25 μM,1.1
same,SILAC ratio Sqle,[6]; competitor 25 μM,1.1
same,"SILAC ratio, Slc35b2",[7]; competitor 25 μM,1.0
same,"SILAC ratio, ABHD6 (Q8R2Y0)",[8]; competitor 25 μM,1.7
same,"SILAC ratio, Abhd6",[8]; competitor 25 μM,1.7
same,"SILAC ratio, Akr1b8",[9]; competitor 25 μM,1.7
"CN1CCN(C(=O)c2c(-c3ccccc3)c3cc([N+](=O)[O-])ccc3n2C)CC1 [KML110, (1-Methyl-5-nitro-3-phenyl-1H-indol-2-yl)(4-methylpiperazin-1-yl)methanone]","SILAC ratio, Ephx1",[1]; competitor 25 μM,3.4
same,"SILAC ratio, Sec11a",[2]; competitor 25 μM,1.6
same,"SILAC ratio, Clptm1",[3]; competitor 25 μM,1.5
same,SILAC ratio Dctpp1,[4]; competitor 25 μM,1.6
same,SILAC ratio Timm50,[5]; competitor 25 μM,1.1
same,SILAC ratio Sqle,[6]; competitor 25 μM,1.3
same,"SILAC ratio, Slc35b2",[7]; competitor 25 μM,1.3
same,"SILAC ratio, Abhd6",[8]; competitor 25 μM,2.6
same,"SILAC ratio, Akr1b8",[9]; competitor 25 μM,3.1
"CN1CCN(C(=O)c2[nH]c3ccc([N+](=O)[O-])cc3c2-c2ccccc2)CC1 [MJN228, (4-Methylpiperazin-1-yl)(5-nitro-3-phenyl-1H-indol-2-yl)methanone]","SILAC ratio, Ephx1",[1]; competitor 10 μM,2.5
same,"SILAC ratio, Ephx1",[1]; competitor 25 μM,3.8
same,"SILAC ratio, Ephx1",[1]; competitor 50 μM,8.2
same,"SILAC ratio, Ephx1",[1]; competitor 100 μM,11.5
same,"SILAC ratio, SEC11A (P67812)",[2]; competitor 25 μM,1.6
same,"SILAC ratio, Sec11a",[2]; competitor 10 μM,1.2
same,"SILAC ratio, Sec11a",[2]; competitor 25 μM,1.6
same,"SILAC ratio, Sec11a",[2]; competitor 50 μM,1.7
same,"SILAC ratio, Sec11a",[2]; competitor 100 μM,2.3
same,"SILAC ratio, Clptm1",[3]; competitor 10 μM,1.3
same,"SILAC ratio, Clptm1",[3]; competitor 25 μM,1.6
same,"SILAC ratio, Clptm1",[3]; competitor 50 μM,1.6
same,"SILAC ratio, Clptm1",[3]; competitor 100 μM,2.5
same,SILAC ratio Dctpp1,[4]; competitor 25 μM,1.2
same,SILAC ratio Dctpp1,[4]; competitor 50 μM,1.0
same,SILAC ratio Dctpp1,[4]; competitor 100 μM,1.0
same,SILAC ratio Timm50,[5]; competitor 10 μM,1.2
same,SILAC ratio Timm50,[5]; competitor 25 μM,1.3
same,SILAC ratio Timm50,[5]; competitor 50 μM,1.1
same,SILAC ratio Timm50,[5]; competitor 100 μM,1.2
same,"SILAC ratio, SQLE (Q14534)",[6]; competitor 25 μM,1.5
same,SILAC ratio Sqle,[6]; competitor 10 μM,1.3
same,SILAC ratio Sqle,[6]; competitor 25 μM,1.5
same,SILAC ratio Sqle,[6]; competitor 100 μM,2.1
same,"SILAC ratio, Slc35b2",[7]; competitor 10 μM,1.0
same,"SILAC ratio, Slc35b2",[7]; competitor 25 μM,1.1
same,"SILAC ratio, Slc35b2",[7]; competitor 50 μM,1.6
same,"SILAC ratio, Slc35b2",[7]; competitor 100 μM,1.2
same,"SILAC ratio, ABHD6 (Q8R2Y0)",[8]; competitor 25 μM,1.7
same,"SILAC ratio, Abhd6",[8]; competitor 10 μM,1.2
same,"SILAC ratio, Abhd6",[8]; competitor 25 μM,1.7
same,"SILAC ratio, Abhd6",[8]; competitor 50 μM,2.3
same,"SILAC ratio, Abhd6",[8]; competitor 100 μM,2.9
same,"SILAC ratio, Akr1b8",[9]; competitor 25 μM,1.9
same,"SILAC ratio, Akr1b8",[9]; competitor 50 μM,2.1
same,"SILAC ratio, Akr1b8",[9]; competitor 100 μM,2.7
"C=CCN(C)CCCCCCOc1ccc(C(=O)c2ccc(Br)cc2)c(F)c1 [Ro 48-8071, reference compound]","SILAC ratio, Ephx1",[1]; competitor 25 μM,2.4
same,"SILAC ratio, SEC11A (P67812)",[2]; competitor 25 μM,1.6
same,"SILAC ratio, Sec11a",[2]; competitor 25 μM,1.6
same,"SILAC ratio, Clptm1",[3]; competitor 25 μM,1.2
same,SILAC ratio Dctpp1,[4]; competitor 25 μM,0.8
same,SILAC ratio Timm50,[5]; competitor 25 μM,0.9
same,"SILAC ratio, SQLE (Q14534)",[6]; competitor 25 μM,1.0
same,SILAC ratio Sqle,[6]; competitor 25 μM,1.0
same,"SILAC ratio, Slc35b2",[7]; competitor 25 μM,0.9
same,"SILAC ratio, ABHD6 (Q8R2Y0)",[8]; competitor 25 μM,1.2
same,"SILAC ratio, Abhd6",[8]; competitor 25 μM,1.2
same,"SILAC ratio, Akr1b8",[9]; competitor 25 μM,1.4
